From PubChem BioAssay AID624129 (Sanford-Burnham Center for Chemical Genomics, 2012)
Calls of active or inactive are those of the source. No rule for the calls is given here.

Molecular target: C-X-C chemokine receptor type 6 (Homo sapiens) (UniProt O00574)
Assay: CXCR6 receptor antagonists, dose response, cell-based, beta-arrestin, DiscoveRx, APJ panel, uHTS hits (AID 624129)
Settings: CXCR6 beta-arrestin (DiscoveRx) antagonist cell assay; for outcome: CXCR6, dose range 1; for inhibition: CXCR6, run 2, dose range 1, at 79 µM (top of the series)
[1] = CXCR6, dose range 1, mean IC50 across replicates

C-X-C chemokine receptor type 6 (Homo sapiens), sequence (O00574 whole entry, looked up): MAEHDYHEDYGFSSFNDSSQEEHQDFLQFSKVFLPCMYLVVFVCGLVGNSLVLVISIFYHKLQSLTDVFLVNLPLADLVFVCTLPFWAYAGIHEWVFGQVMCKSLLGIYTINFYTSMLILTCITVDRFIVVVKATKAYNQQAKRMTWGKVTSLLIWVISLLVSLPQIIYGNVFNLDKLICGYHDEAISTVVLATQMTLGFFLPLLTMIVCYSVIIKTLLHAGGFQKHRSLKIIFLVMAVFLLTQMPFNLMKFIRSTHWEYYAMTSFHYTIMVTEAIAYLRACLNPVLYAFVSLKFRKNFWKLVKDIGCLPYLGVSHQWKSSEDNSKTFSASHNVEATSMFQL

Structure (SMILES)	outcome	IC50 [1]	IC50 (CXCR6, run 1, dose range 2)	inhibition	IC50 (CXCR6, run 2, dose range 2)
O=C1C=CC(=O)N1CCCCCCCCCCN1C(=O)C=CC1=O	inactive	16.5 µM	15.1 µM	111%	18 µM
COc1cccc(/C=C2/CCC(CN(C)C)C2=O)c1 (stereo not given)	inactive	19.4 µM	20.6 µM	111%	18.2 µM
O=[N+]([O-])c1cc2no[n+]([O-])c2cc1N1CCCCC1	inactive	12 µM	12.2 µM	112%	11.9 µM
COc1cc(N2C(=O)C=CC2=O)ccc1N1C(=O)C=CC1=O	inactive	15.8 µM	12.7 µM	112%	18.9 µM
O=C1c2cccc3c([N+](=O)[O-])ccc(c23)C(=O)N1c1ccc(Cl)cn1	inactive	19.6 µM	17.7 µM	92.1%	21.6 µM
COc1cc(/C=C/[N+](=O)[O-])ccc1OC(=O)c1cc2ccccc2oc1=O	inactive	11.6 µM	12.1 µM	112%	11.2 µM
COC(=O)CSc1[nH]c2ccc(Br)cc2c1[N+](=O)[O-]	inactive	42.2 µM	42.2 µM	23.1%	> 79 µM
Cc1ccc(NC(=O)C2=C(c3ccccc3)S(=O)(=O)CCS2(=O)=O)cc1	inactive	16.9 µM	16.4 µM	108%	17.4 µM
Cc1ccccc1CS(=O)(=O)c1ncc(Cl)c(C(=O)Nc2ccc(F)cc2)n1	inactive	17.1 µM	15.4 µM	109%	18.9 µM
CCCCC(=O)NC(=S)NNC(=O)c1ccc(OC)cc1	inactive	11.5 µM	10.2 µM	98%	12.9 µM
C=CCOc1ccc(C=NNc2ccc(S(=O)(=O)Nc3ccccc3C(=O)O)cc2[N+](=O)[O-])cc1OC	inactive	28.8 µM	29.4 µM	98.5%	28.2 µM
Cc1cccc(Cc2cnc(N3C(=N)SC(C)C3=O)s2)c1 (stereo not given)	active	7.79 µM	7.79 µM	41.4%	> 79 µM
O=C(C=Cc1ccccn1)c1ccccc1O	inactive	22.4 µM	13.8 µM	108%	31 µM
Cc1cccc(CS(=O)(=O)c2ncc(Cl)c(C(=O)NCc3ccc4c(c3)OCO4)n2)c1	inactive	16.9 µM	15.7 µM	109%	18 µM
CCOC(=O)[C@]12Cc3cc(Cl)ccc3[C@H]1N(C1CCCCC1)C(=O)c1cc(OC)ccc12	inactive	17.8 µM	16.2 µM	113%	19.5 µM
O=[N+]([O-])c1ccc(Sc2nc3ccccc3o2)c([N+](=O)[O-])c1	inactive	45.1 µM	70.5 µM	82.2%	19.7 µM
O=C(NNC(=O)c1cc(-c2ccccc2)nn1-c1ccccc1)c1ccccc1	inactive	11.5 µM	10.4 µM	75%	12.6 µM
Cn1cnc([N+](=O)[O-])c1S(=O)(=O)c1ccc(Cl)cc1	inactive	13.9 µM	14.5 µM	110%	13.3 µM
CC(=O)Nc1ccc2c(c1)Cc1cc(N3C(=O)C=CC3=O)ccc1-2	inactive	14.8 µM	15.3 µM	112%	14.3 µM
CCCSc1cc(NCCOC(=O)CCC)c([N+](=O)[O-])c2nonc12	inactive	17.7 µM	17.6 µM	112%	17.9 µM
